Assay results taken from patent US20090155339A1, “Biocompatible Antimicrobial Filament Material” (AESCULAP AG & CO. KG, priority 2005, published 2009).

Test system: L929 cells (DSM ACC2, mouse fibroblasts)
Assay: Cytotoxicity of PHMB-HCl coated thread extracts, growth inhibition (BCA Assay method)
Type: cell-based
Conditions: positive control 7.5% v/v DMSO, 72 h
Procedure: The test was carried out in accordance with the standard EN ISO/IEC 17025. The thread pieces were extracted in the absence of light with the DMEM-FBS cell culture medium at 37±2° C. for 7 days. The absorbed DMEM-FBS was made up to a volume such that the surface/volume ratio was 9 cm^2/ml. As a negative control, DMEM-FBS was incubated at 37±2° C. for 7 days without test material. 7.5% v/v DMSO was used as positive control. Extracts and negative controls were diluted in five steps with DMEM-FBS solution (dilution ratio 2:3). 100 μl of the dilute solutions of the extracts and of the negative controls and also 100 μl of the positive controls were added in triplicate to wells in a […]. Thereafter, 50 μl of a freshly prepared cell suspension (7.5×10^4 cells/ml) were added to all wells except those used for background determination. The final concentrations of the extracts were accordingly 66.7%, 44.5%, 29.6%, 19.8%, 13.2% and 8.8% v/v. The plates were then incubated at 37±2° C. in humidified air (5% CO2/95% air) for 72±2 hours. Thereafter, the protein content of the samples was determined calorimetrically at a wavelength of 550 nm (BCA Assay method). The test organisms used were L929 cells (DSM ACC2, mouse fibroblasts, clone of the L strand). […] FBS and P/S from Biochrom (Berlin) and BCA protein quantification kit from Interchim (France).

In the case of `C[S+](C)[O-]` [Positive control, DMSO], the Growth inhibition is reported as 81%.
